Measured values reported in US20210392895A1, “NOVEL OXADIAZOLES” (PI INDUSTRIES LIMITED, priority 2018, published 2021).
Structures can show the parent of a compound that is named as a salt.

Key:
Alternaria solani = Alternaria solani (early blight of tomato/potato) in vitro test, radial growth on Potato Dextrose Agar; type: cell-based; details: 168 h, compared to the untreated check, radial growth after seven days, read-out: control
Pyricularia oryzae = assay: microbe, parasite or virus in culture; type: cell-based; details: 168 h, read-out: control
Colletotrichum capsici = Colletotrichum capsici (anthracnose) in vitro test, radial growth on Potato Dextrose Agar; details: Colletotrichum truncatum, 168 h, read-out: control
Method: Compounds were dissolved in 0.3% DMSO and then added to Potato Dextrose Agar medium just prior to dispensing it into petri dishes. 5 mL medium with compound in the desired concentration was dispensed into 60 mm sterile petri-plates. After solidification, each plate was seeded with a 5 mm size mycelial disc taken form the periphery of an actively growing virulent culture plate. Plates were incubated in growth chambers at 25° C. temperature and 60% relative humidity for seven days and radial growth was measured.

Rhizoctonia solani = Rhizoctonia solani (rice sheath blight/potato black scurf) in vitro test, radial growth on Potato Dextrose Agar; type: cell-based; details: 168 h, compared to the untreated check, radial growth after seven days, read-out: control
Phakopsora pachyrhizi = Phakopsora pachyrhizi test in soybean (greenhouse, preventive activity, disease severity rating); type: in vivo; details: preventive spray on soybean, compared to the untreated check
Outline: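 Greenhouse-raised young soybean plants sprayed with compound at stated rates, then inoculated one day later with 2.1×10^6 P. pachyrhizi spores and held at 25° C, 90% RH. Disease severity (0-100%) rated visually 3, 7, 10 and 15 days after application; % control calculated versus untreated plants.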

Botrytis cinerea = Botrytis cinerea (gray mold) in vitro test, radial growth on Potato Dextrose Agar; type: cell-based; details: 168 h, compared to the untreated check, radial growth after seven days, read-out: control
Corynespora cassicola = Corynespora cassicola (leaf spot of tomato) in vitro test, radial growth on Potato Dextrose Agar; type: cell-based; details: 168 h, compared to the untreated check, radial growth after seven days, read-out: control

Structure (SMILES)	inhibition of growth at 300 ppm (Alternaria solani)	inhibition of growth at 300 ppm (Pyricularia oryzae)	inhibition of growth at 300 ppm (Colletotrichum capsici)	inhibition of growth at 300 ppm (Rhizoctonia solani)	pest or weed control at 500 ppm (Phakopsora pachyrhizi)	inhibition of growth at 300 ppm (Botrytis cinerea)	inhibition of growth at 300 ppm (Corynespora cassicola)
O=C(c1cccc(F)c1)N1CCC(Oc2cccc(-c3noc(C(F)(F)F)n3)c2)C1 (centres unmarked) [Compound 133, (3-fluorophenyl)(3-(3-(5-(trifluoromethyl)-1,2,4-oxadiazol-3-yl)phenoxy)pyrrolidin-1-yl)methanone]	> 70%	> 70%					
O=C(c1ccncc1)N1CC[C@H](Oc2ccc(-c3noc(C(F)(F)F)n3)cn2)C1 [Compound 49, (S)-pyridin-4-yl(3-((5-(5-(trifluoromethyl)-1,2,4-oxadiazol-3-yl)pyridin-2-yl)oxy)pyrrolidin-1-yl)methanone]	> 70%	> 70%	> 70%	> 70%	> 70%		
CC(=O)N1CC[C@H](Oc2ccc(-c3noc(C(F)(F)F)n3)c(F)c2)C1 [Compound 68, (S)-1-(3-(3-fluoro-4-(5-(trifluoromethyl)-1,2,4-oxadiazol-3-yl)phenoxy)pyrrolidin-1-yl)ethan-1-one]	> 70%	> 70%	> 70%	> 70%		> 70%	
COc1ccc(C(=O)N2CC[C@H](Oc3ccc(-c4noc(C(F)(F)F)n4)cc3)C2)cn1 [Compound 56, (S)-(6-methoxypyridin-3-yl)(3-(4-(5-(trifluoromethyl)-1,2,4-oxadiazol-3-yl)phenoxy)pyrrolidin-1-yl)methanone]		> 70%			> 70%		
O=C(c1ccncc1)N1CC[C@H](Oc2ccc(-c3noc(C(F)(F)F)n3)cc2F)C1 [Compound 59, (S)-(3-(2-fluoro-4-(5-(trifluoromethyl)-1,2,4-oxadiazol-3-yl)phenoxy)pyrrolidin-1-yl)(pyridin-4-yl)methanone]	> 70%	> 70%	> 70%	> 70%	> 70%	> 70%	
O=C(c1ccc(F)cc1)N1CCC(Oc2cccc(-c3noc(C(F)(F)F)n3)c2)C1 (centres unmarked) [Compound 134, (4-fluorophenyl)(3-(3-(5-(trifluoromethyl)-1,2,4-oxadiazol-3-yl)phenoxy)pyrrolidin-1-yl)methanone]	> 70%	> 70%					
CN(c1ccc(-c2noc(C(F)(F)F)n2)cc1)C1CN(C(=O)c2cccc(F)c2)C1 [Compound 96, (3-fluorophenyl)(3-(methyl(4-(5-(trifluoromethyl)-1,2,4-oxadiazol-3-yl)phenyl)amino)azetidin-1-yl)methanone]	> 70%	> 70%	> 70%				
CC(C)S(=O)(=O)N1CC[C@H](Oc2ccc(-c3noc(C(F)(F)F)n3)cc2)C1 [Compound 136, (S)-3-(4-((1-(isopropylsulfonyl)pyrrolidin-3-yl)oxy)phenyl)-5-(trifluoromethyl)-1,2,4-oxadiazole]			> 70%				
CCS(=O)(=O)N1CC[C@H](Oc2ccc(-c3noc(C(F)(F)F)n3)cc2F)C1 [Compound 61, (S)-3-(4-((1-(ethylsulfonyl)pyrrolidin-3-yl)oxy)-3-fluorophenyl)-5-(trifluoromethyl)-1,2,4-oxadiazole]		> 70%			> 70%		
O=C(c1cccnc1)N1CC[C@H](Oc2ccc(-c3noc(C(F)(F)F)n3)cn2)C1 [Compound 48, (S)-pyridin-3-yl(3-((5-(5-(trifluoromethyl)-1,2,4-oxadiazol-3-yl)pyridin-2-yl)oxy)pyrrolidin-1-yl)methanone]	> 70%	> 70%		> 70%	> 70%	> 70%	
FC(F)(F)c1nc(-c2ccc(S[C@@H]3CCNC3)cc2)no1 [Compound 158, (R)-3-(4-(pyrrolidin-3-ylthio)phenyl)-5-(trifluoromethyl)-1,2,4-oxadiazole Hydrochloride]	> 70%						> 70%
O=C(c1cscn1)N1CC[C@H](Oc2ccc(-c3noc(C(F)(F)F)n3)cn2)C1 [Compound 200, (S)-thiazol-4-yl(3-((5-(5-(trifluoromethyl)-1,2,4-oxadiazol-3-yl)pyridin-2-yl)oxy)pyrrolidin-1-yl)methanone]	> 70%	> 70%	> 70%				
O=C(c1ccccc1F)N1CC[C@H](Oc2ccc(-c3noc(C(F)(F)F)n3)cn2)C1 [Compound 45, (S)-(2-fluorophenyl)(3-((5-(5-(trifluoromethyl)-1,2,4-oxadiazol-3-yl)pyridin-2-yl)oxy)pyrrolidin-1-yl)methanone]		> 70%			> 70%		
O=C(c1ccccc1F)N1CC[C@H](Oc2ccc(-c3noc(C(F)(F)F)n3)cc2)C1 [Compound 6, (S)-(2-fluorophenyl)(3-(4-(5-(trifluoromethyl)-1,2,4-oxadiazol-3-yl)phenoxy)pyrrolidin-1-yl)methanone]	> 70%						
FC(F)(F)c1nc(-c2ccc(O[C@H]3CCN(Cc4ccccc4)C3)cc2)no1 [Compound 137, (S)-3-(4-((1-benzylpyrrolidin-3-yl)oxy)phenyl)-5-(trifluoromethyl)-1,2,4-oxadiazole]	> 70%	> 70%		> 70%			> 70%
O=C(c1ccccc1F)N1CCC(Oc2cccc(-c3noc(C(F)(F)F)n3)c2)C1 (centres unmarked) [Compound 132, (2-fluorophenyl)(3-(3-(5-(trifluoromethyl)-1,2,4-oxadiazol-3-yl)phenoxy)pyrrolidin-1-yl)methanone]	> 70%						
CN(c1ccc(-c2noc(C(F)(F)F)n2)cc1)C1CN(C(=O)c2ccccc2)C1 [Compound 87, (3-(methyl(4-(5-(trifluoromethyl)-1,2,4-oxadiazol-3-yl)phenyl)amino)azetidin-1-yl)(phenyl)methanone]			> 70%		> 70%		
COc1cccc(CC(=O)N2CC[C@H](Oc3ccc(-c4noc(C(F)(F)F)n4)cc3)C2)c1 [Compound 24, (S)-2-(3-methoxyphenyl)-1-(3-(4-(5-(trifluoromethyl)-1,2,4-oxadiazol-3-yl)phenoxy)pyrrolidin-1-yl)ethan-1-one]	> 70%				> 70%		
FC(F)(F)c1nc(-c2ccc(N(c3ccc(-c4noc(C(F)(F)F)n4)cc3)C3CNC3)cc2)no1 [Compound 86, N,N-bis(4-(5-(trifluoromethyl)-1,2,4-oxadiazol-3-yl)phenyl)azetidin-3-amine Hydrochloride]	> 70%				> 70%		
CN(c1ccc(-c2noc(C(F)(F)F)n2)cc1)C1CN(C(=O)Cc2ccccc2)C1 [Compound 99, 1-(3-(methyl(4-(5-(trifluoromethyl)-1,2,4-oxadiazol-3-yl)phenyl)amino)azetidin-1-yl)-2-phenylethan-1-one]	> 70%	> 70%					
COc1cccc(C(=O)N2CC(Oc3ccc(-c4noc(C(F)(F)F)n4)cc3)C2)c1 [Compound 17, (3-methoxyphenyl)(3-(4-(5-(trifluoromethyl)-1,2,4-oxadiazol-3-yl)phenoxy)azetidin-1-yl)methanone]		> 70%			> 70%		
COc1ccc(C(=O)N2CC(N(C)c3ccc(-c4noc(C(F)(F)F)n4)cc3)C2)cc1 [Compound 98, (4-methoxyphenyl)(3-(methyl(4-(5-(trifluoromethyl)-1,2,4-oxadiazol-3-yl)phenyl)amino)azetidin-1-yl)methanone]	> 70%	> 70%					
Cc1ccc(C(=O)N2CC(N(C)c3ccc(-c4noc(C(F)(F)F)n4)cc3)C2)cc1 [Compound 97, (3-(methyl(4-(5-(trifluoromethyl)-1,2,4-oxadiazol-3-yl)phenyl)amino)azetidin-1-yl)(p-tolyl)methanone]	> 70%	> 70%					
O=C(c1cccnc1)N1CC[C@H](Oc2ccc(-c3noc(C(F)(F)F)n3)cc2F)C1 [Compound 58, (S)-(3-(2-fluoro-4-(5-(trifluoromethyl)-1,2,4-oxadiazol-3-yl)phenoxy)pyrrolidin-1-yl)(pyridin-3-yl)methanone]	> 70%	> 70%					
CC(C)(C)OC(=O)N1CC[C@H](Oc2ccc(-c3noc(C(F)(F)F)n3)cc2F)C1 [Compound 60, tert-butyl-(S)-3-(2-fluoro-4-(5-(trifluoromethyl)-1,2,4-oxadiazol-3-yl)phenoxy)pyrrolidine-1-carboxylate]		> 70%			> 70%		
COc1cccc(C(=O)N2CC[C@H](Oc3ccc(-c4noc(C(F)(F)F)n4)cc3)C2)c1 [Compound 1, (S)-(3-methoxyphenyl)(3-(4-(5-(trifluoromethyl)-1,2,4-oxadiazol-3-yl)phenoxy)pyrrolidin-1-yl)methanone]	> 70%				> 70%		
O=C(Cc1ccccc1)N1CC[C@H](Oc2ccc(-c3noc(C(F)(F)F)n3)cc2)C1 [Compound 11, (S)-2-phenyl-1-(3-(4-(5-(trifluoromethyl)-1,2,4-oxadiazol-3-yl)phenoxy)pyrrolidin-1-yl)ethan-1-one]		> 70%			> 70%		
